Molecules are shown by their SMILES. Read-outs that look alike come from different tables or passages of the source.

Series [1] deals with genotype A, "Long" strain RSV. In words: RSV-A assay: CPE protection in HEp-2 cells, ATPlite readout. Type of series: cell-based, human respiratory syncytial virus. The method, boiled down: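 EC50 derives from ATPlite luminescence after 5-day culture of RSV Long-infected (MOI 0.1) HEp-2 cells, seeded 8,000/well, exposed to duplicate 2-fold compound series. CC50 comes from an identical plate receiving medium instead of virus.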
For orientation: Cellular ATP, detected with luciferase, serves as a proxy for viable cell number.

Series [2] relates to HEp-2 cells. Nature of the series: Cytotoxicity in parallel to the RSV-A assay (no virus), ATPlite readout. Type of series: cell-based, human. Here is the method:
Following extensive parameter testing, the final assay is run as follows: HEp-2 cells are seeded into the inner 60 wells of a 96-well plate at 8,000 cells per well in a volume of 50 μL using Growth Media (DMEM without phenol red, 1% L-Glut, 1% Penn/Strep, 1% nonessential amino acids, 10% heat-inactivated FBS). 2-fold serial dilutions of control and test compounds are added to the wells in duplicate in a total volume of 25 μL. Viral stock is then added to the wells at a multiplicity of infection (MOI) of 0.1 in a volume of 25 μL, bringing the total volume of each well to 100 μL. The MOI is calculated using the PFU/mL, or TCID50 if unavailable. Each 96-well plate has a control column of 6 wells with cells and virus but no compound (negative control, max CPE), a column with cells but no compound or virus (positive control, minimum CPE), and a column with no cells or virus or compound (background plate/reagent control). The control wells with cells but no virus are given an additional 25 μL of growth media containing an equal quantity of sucrose as those wells receiving the viral stock in order to keep consistent in media and volume conditions. The outer wells of the plate are filled with 125 μL of moat media (DMEM, 1% Penn/Strep) to act as a thermal and evaporative moat around the test wells. Following a 5-day incubation period, the plates are read using ATPlite (50 μL added per well), which quantifies the amount of ATP (a measure of cell health) present in each well. Assay plates are read using the Envision luminometer. In parallel, cytotoxicity is examined on an additional 96-well plate treated in an identical manner, but substituting the 25 μL of viral stock for 25 μL of growth media. […] EC50 ranges are as follows: A <0.4 μM; B 0.4-0.8 μM; C >0.8 μM and CC50 ranges are as follows: A >50 μM; B 10-50 μM; C <10 μM.

[3] abbreviates: human respiratory syncytial virus, HEp-2, read-out: Human RSV-A (“Long” strain) EC50.

The term EC50 denotes the concentration giving half of the maximal effect. Broadly, the CC50 is the concentration that lowers cell viability or growth by half. A lower CC50 goes with harm at low concentration. On to `O=C1Nc2ccccc2C(c2ccccc2)=NC1Nc1nc2ccccc2o1` (centres unmarked) [Example 100], for which, in series [1] (setting [3]), the EC50 is over 0.8 µM. For the same compound, the CC50 in series [2] is 10 to 50 µM.
Taken in the same sequence, the figures for `O=C1Nc2ccccc2C(c2ccccc2)=NC1Nc1nnc(-c2ncco2)o1` (centres unmarked) [Example 70] were over 0.8 µM and over 50 µM.
On the same counts, the results for `CS(=O)(=O)c1ccc(-c2nnc(NC3N=C(c4ccccc4)c4ccccc4NC3=O)o2)cc1` (centres unmarked) [Example 27] are over 0.8 µM and over 50 µM.
Consider `O=C1Nc2ccccc2C(c2ccccc2)=NC1Nc1nnc(-c2ccc(OC(F)(F)F)cc2)o1` (centres unmarked) [Example 30], for which the EC50 in series [1] (setting [3]) was over 0.8 µM. The same compound had a CC50 in series [2] of over 50 µM.
On the same counts, the results for `O=C1Nc2ccccc2C(c2ccccc2)=NC1Nc1nnc(-c2cccnn2)o1` (centres unmarked) [Example 62] are over 0.8 µM and over 50 µM.
Regarding `O=C1Nc2ccccc2C(c2ccccc2)=NC1Nc1nc2ccc(Cl)cc2o1` (centres unmarked) [Example 99], in series [1] (setting [3]), the 50% effective concentration (EC50) was over 0.8 µM. In series [2], this compound showed a CC50 of 10 to 50 µM.
Taken in the same sequence, the figures for `Cc1cc(-c2nnc(NC3N=C(c4ccccc4)c4ccccc4NC3=O)o2)ccc1C#N` (centres unmarked) [Example 34] were 0.4 to 0.8 µM and over 50 µM.
For the compound `COCc1cccc(-c2nnc(NC3N=C(c4ccccc4)c4ccccc4NC3=O)o2)n1` (centres unmarked) [Example 64], the EC50 in series [1] (setting [3]) was over 0.8 µM. In series [2], this compound had a CC50 of over 50 µM.
On the same counts, the results for `O=C1Nc2ccccc2C(c2ccccc2)=NC1Nc1nnc(-c2ccnc(F)c2)o1` (centres unmarked) [Example 55] are under 0.4 µM and over 50 µM.
Regarding `O=C1Nc2ccccc2C(c2ccccc2)=NC1Nc1nc(-c2ccccc2)no1` (centres unmarked) [Example 89], in series [1] (HEp-2 cells, RSV-A Long strain, ATPlite readout, read-out: Human RSV-A (“Long” strain) EC50), the EC50 is over 0.8 µM. The compound also registered a CC50 in series [2] of 10 to 50 µM.
As for `Cc1ccc(-c2nnc(NC3N=C(c4ccccc4)c4ccccc4NC3=O)o2)o1` (centres unmarked) [Example 71], the EC50 in series [1] (setting [3]) was over 0.8 µM. The compound further yielded a CC50 in series [2] of over 50 µM.
Taken in the same sequence, the figures for `O=C1Nc2ccccc2C(c2ccccc2)=NC1Nc1cccn(Cc2ccccc2)c1=O` (centres unmarked) [Example 97] were over 0.8 µM and over 50 µM.
Taken in the same sequence, the figures for `Cc1ccc2oc(NC3N=C(c4ccccc4)c4ccccc4NC3=O)nc2c1` (centres unmarked) [Example 106] were over 0.8 µM and under 10 µM.
On the same counts, the results for `CN1CCc2nc(-c3nnc(NC4N=C(c5ccccc5)c5ccccc5NC4=O)o3)sc2C1` (centres unmarked) [Example 44] are over 0.8 µM and over 50 µM.
As for `N#Cc1cc(-c2nnc(NC3N=C(c4ccccc4)c4ccccc4NC3=O)o2)ccc1F` (centres unmarked) [Example 32], the EC50 in series [1] (setting [3]) lay within 0.4 to 0.8 µM. The compound further returned a CC50 in series [2] of over 50 µM.
Taken in the same sequence, the figures for `O=C1Nc2ccccc2C(c2ccccc2)=NC1Nc1ccnc(-c2ccccc2)n1` (centres unmarked) [Example 96] were over 0.8 µM and 10 to 50 µM.
`CN(C)Cc1ccc(-c2nnc(NC3N=C(c4ccccc4)c4ccccc4NC3=O)o2)o1` (centres unmarked) [Example 73]: in series [1] (setting [3]), the concentration giving a half-maximal response (EC50) was over 0.8 µM. The compound also registered a CC50 in series [2] of over 50 µM.
On the same counts, the results for `O=C1Nc2ccccc2C(c2ccccc2)=NC1Nc1nnc(-c2ccc(F)cc2F)o1` (centres unmarked) [Example 50] are over 0.8 µM and over 50 µM.
Taken in the same sequence, the figures for `O=C1Nc2ccccc2C(c2ccccc2)=NC1Nc1nnc(-c2cnco2)o1` (centres unmarked) [Example 75] were over 0.8 µM and over 50 µM.
Taken in the same sequence, the figures for `O=C1Nc2ccccc2C(c2ccccc2)=NC1Nc1nc2ccc(F)cc2o1` (centres unmarked) [Example 103] were over 0.8 µM and 10 to 50 µM.
`O=C1Nc2ccccc2C(c2ccccc2)=NC1Nc1nc2ccccc2s1` (centres unmarked) [Example 101]: the EC50 in series [1] (setting [3]) was over 0.8 µM. The same compound showed a CC50 in series [2] of 10 to 50 µM.
With `O=C1Nc2ccccc2C(c2ccccc2)=NC1Nc1nnc(-c2cncs2)o1` (centres unmarked) [Example 76], the EC50 in series [1] (setting [3]) is over 0.8 µM. The same compound came in with a CC50 in series [2] of over 50 µM.
On the same counts, the results for `O=C1Nc2ccccc2C(c2ccccc2)=NC1Nc1cc(Oc2ccccc2)ncn1` (centres unmarked) [Example 94] are over 0.8 µM and 10 to 50 µM.
On the same counts, the results for `COc1ccc(-c2nnc(NC3N=C(c4ccccc4)c4ccccc4NC3=O)o2)cn1` (centres unmarked) [Example 54] are under 0.4 µM and over 50 µM.
Taken in the same sequence, the figures for `Cn1ccnc1-c1nnc(NC2N=C(c3ccccc3)c3ccccc3NC2=O)o1` (centres unmarked) [Example 67] were over 0.8 µM and over 50 µM.
Regarding `COc1cc(-c2nnc(NC3N=C(c4ccccc4)c4ccccc4NC3=O)o2)ccc1F` (centres unmarked) [Example 14], the EC50 in series [1] (setting [3]) is under 0.4 µM. The 50% cytotoxic concentration (CC50) in series [2] is 10 to 50 µM.
Taken in the same sequence, the figures for `O=C1Nc2ccccc2C(c2ccccc2)=NC1Nc1nnc(-c2ccncc2)s1` (centres unmarked) [Example 83] were over 0.8 µM and over 50 µM.
Taken in the same sequence, the figures for `O=C1Nc2ccccc2C(c2ccccc2)=NC1Nc1nnc(-c2ccccc2)o1` (centres unmarked) [Example 2] were over 0.8 µM and over 50 µM.
On the same counts, the results for `Cc1cccc(-c2nnc(NC3N=C(c4ccccc4)c4ccccc4NC3=O)o2)n1` (centres unmarked) [Example 26] are over 0.8 µM and over 50 µM.
For the compound `COc1ccc(-c2nnc(NC3N=C(c4ccccc4)c4ccccc4NC3=O)o2)cc1` (centres unmarked) [Example 8], the EC50 in series [1] (setting [3]) was over 0.8 µM. In series [2], this compound displayed a CC50 of over 50 µM.
Taken in the same sequence, the figures for `O=C1Nc2ccccc2C(c2ccccc2)=NC1Nc1ncc(-c2ccccc2)o1` (centres unmarked) [Example 84] were over 0.8 µM and 10 to 50 µM.
Taken in the same sequence, the figures for `O=C1Nc2ccccc2C(c2ccccc2)=N[C@H]1Nc1nnc(-c2ccc(F)cc2)o1` [Example 7b] were over 0.8 µM and 10 to 50 µM.
Taken in the same sequence, the figures for `O=C1Nc2ccccc2C(c2ccccc2)=NC1Nc1nnc(-c2ccc3nc[nH]c3c2)o1` (centres unmarked) [Example 41] were over 0.8 µM and over 50 µM.
In the case of `O=C1Nc2ccccc2C(c2ccccc2)=NC1Nc1nnc(-c2ccc(Cl)cc2)o1` (centres unmarked) [Example 13], the EC50 in series [1] (setting [3]) is under 0.4 µM. In series [2], the cytotoxic concentration (CC50) is over 50 µM.
Take `COc1cccc(-c2nnc(NC3N=C(c4ccccc4)c4ccccc4NC3=O)o2)n1` (centres unmarked) [Example 52]: the EC50 in series [1] (setting [3]) is under 0.4 µM. Moreover, the CC50 in series [2] is over 50 µM.
`N#Cc1cccc(-c2nnc(NC3N=C(c4ccccc4)c4ccccc4NC3=O)o2)c1` (centres unmarked) [Example 35]: the EC50 in series [1] (setting [3]) is over 0.8 µM. Besides, in series [2], the CC50 is over 50 µM.
With `O=C1Nc2ccccc2C(c2ccccc2)=NC1Nc1nnc(-c2cccc(F)c2)o1` (centres unmarked) [Example 3], the EC50 in series [1] (setting [3]) is over 0.8 µM. The same compound yielded a CC50 in series [2] of over 50 µM.
On the same counts, the results for `O=C1Nc2ccccc2C(c2ccccc2)=NC1Nc1nnc(-c2ccncn2)o1` (centres unmarked) [Example 63] are over 0.8 µM and over 50 µM.
On the same counts, the results for `O=C1Nc2ccccc2C(c2ccccc2)=N[C@@H]1Nc1nnc(-c2ccco2)o1` [Example 10a] are 0.4 to 0.8 µM and over 50 µM.
Taken in the same sequence, the figures for `O=C1Nc2ccccc2C(c2ccccc2)=NC1Nc1nnc(-c2ccccc2)s1` (centres unmarked) [Example 81] were over 0.8 µM and over 50 µM.
As to `Cn1cnc(-c2nnc(NC3N=C(c4ccccc4)c4ccccc4NC3=O)o2)c1` (centres unmarked) [Example 68], the EC50 in series [1] (setting [3]) is over 0.8 µM. This compound showed a CC50 in series [2] of over 50 µM.
On the same counts, the results for `Cc1cc(-c2nnc(NC3N=C(c4ccccc4)c4ccccc4NC3=O)o2)on1` (centres unmarked) [Example 74] are over 0.8 µM and over 50 µM.
Taken in the same sequence, the figures for `O=C1Nc2ccccc2C(c2ccccc2)=NC1Nc1nnc(-c2cncnc2)o1` (centres unmarked) [Example 60] were over 0.8 µM and over 50 µM.

These data come from patent US12268694B2, “Combination pharmaceutical agents as RSV inhibitors” (Enanta Pharmaceuticals, Inc., priority 2017, dated 2025).
